Data taken from ChEMBL document CHEMBL4602676, “Discovery and Development of 3-(6-Chloropyridine-3-yloxymethyl)-2-azabicyclo[3.1.0]hexane Hydrochloride (SUVN-911): A Novel, Potent, Selective, and Orally Active Neuronal Nicotinic Acetylcholine α4β2 Receptor Antagonist for the Treatment of Depression” (J Med Chem, 2020).

Tests used:
Rattus norvegicus [1] = assay: Antidepressant activity in Wistar rat assessed as immobility time at 45 mg/kg, ip measured for 5 mins by forced swim test (reference value: 271.9 +/- 7.2 sec); format: functional
[2] = molecular target: Neuronal acetylcholine receptor; alpha4/beta2 (Homo sapiens, UniProt P17787+P43681); assay: Displacement of [3H]cytisine from human alpha4beta2 nAChR expressed in CHOK1 cell membrane by microbeta scintillation counting method; format: cell membranes, CHO-K1
[3] = molecular target: Neuronal acetylcholine receptor; alpha3/beta4 (Homo sapiens, UniProt P30926+P32297); assay: Displacement of [3H]epibatidine from human alpha3beta4 nAChR expressed in IMR32 cell membrane by microbeta scintillation counting method; format: cell membranes, IMR-32
[4] = Metabolic stability in human liver microsomes assessed as compound metabolism incubated for 30 mins in presence of NADPH by LC-MS/MS analysis; format: ADME, Microsome; details: read-out: Drug metabolism
[5] = Metabolic stability in rat liver microsomes assessed as compound metabolism incubated for 30 mins in presence of NADPH by LC-MS/MS analysis; format: ADME, Microsome; details: read-out: Drug metabolism
[6] = Oral bioavailability in Wistar rat at 10 ml/kg measured upto 24 hrs by LC-MS/MS analysis; format: ADME, organism-based; details: in vivo
[7] = Cmax in Wistar rat at 10 ml/kg, po or 2 ml/kg, iv measured upto 24 hrs by LC-MS/MS analysis; format: ADME, organism-based; details: in vivo
[8] = AUC in Wistar rat at 10 ml/kg, po or 2 ml/kg, iv measured upto 24 hrs by LC-MS/MS analysis; format: ADME, organism-based; details: in vivo
[9] = Half life in Wistar rat at 10 ml/kg, po or 2 ml/kg, iv measured upto 24 hrs by LC-MS/MS analysis; format: ADME, organism-based; details: in vivo
[10] = Ratio of drug level in brain to plasma in Wistar rat at 10 ml/kg, po or 2 ml/kg, iv measured upto 24 hrs by LC-MS/MS analysis; format: ADME, organism-based; details: brain and plasma, read-out: BPR
Cytochrome P450 2D6 = Cytochrome P450 2D6 (Homo sapiens, UniProt P10635); assay: Inhibition of CYP2D6 in human liver microsomes using dextromethorphan as substrate incubated for 12 min in presence of NADPH by LC-MS/MS analysis; format: ADME
Cytochrome P450 3A4 = Cytochrome P450 3A4 (Homo sapiens, UniProt P08684); assay: Inhibition of CYP3A4 in human liver microsomes using midazolam as substrate incubated for 2 min in presence of NADPH by LC-MS/MS analysis; format: ADME
Rattus norvegicus [11] = assay: Antidepressant activity in Wistar rat assessed as reduction in immobility at 1 mg/kg, po administrated for 3 days and measured for 5 mins by forced swim test relative to control; format: functional; set-up: scale not given: the % may be the effect or the level left
Rattus norvegicus [12] = assay: Antidepressant activity in Wistar rat assessed as reduction in immobility at 3 mg/kg, po administrated for 3 days and measured for 5 mins by forced swim test relative to control; format: functional; set-up: scale not given: the % may be the effect or the level left
Rattus norvegicus [13] = assay: Antidepressant activity in Wistar rat assessed as reduction in immobility at 10 mg/kg, po administrated for 3 days and measured for 5 mins by forced swim test relative to control; format: functional; set-up: scale not given: the % may be the effect or the level left

Sequence of Cytochrome P450 3A4 (P08684 whole entry): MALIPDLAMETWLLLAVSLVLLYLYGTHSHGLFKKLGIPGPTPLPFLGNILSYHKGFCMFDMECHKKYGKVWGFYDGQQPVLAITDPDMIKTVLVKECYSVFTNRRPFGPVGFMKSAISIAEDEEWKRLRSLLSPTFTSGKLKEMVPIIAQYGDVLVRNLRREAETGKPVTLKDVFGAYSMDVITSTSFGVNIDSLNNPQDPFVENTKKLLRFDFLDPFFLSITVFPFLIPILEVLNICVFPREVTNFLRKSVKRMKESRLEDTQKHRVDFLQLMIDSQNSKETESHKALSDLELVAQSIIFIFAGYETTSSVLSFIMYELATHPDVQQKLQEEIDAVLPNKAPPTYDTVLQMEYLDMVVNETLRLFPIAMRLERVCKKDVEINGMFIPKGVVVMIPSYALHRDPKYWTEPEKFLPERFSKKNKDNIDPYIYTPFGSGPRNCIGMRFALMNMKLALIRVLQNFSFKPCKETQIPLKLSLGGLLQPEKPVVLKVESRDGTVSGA
Sequence of Neuronal acetylcholine receptor; alpha4/beta2 (P17787 whole entry): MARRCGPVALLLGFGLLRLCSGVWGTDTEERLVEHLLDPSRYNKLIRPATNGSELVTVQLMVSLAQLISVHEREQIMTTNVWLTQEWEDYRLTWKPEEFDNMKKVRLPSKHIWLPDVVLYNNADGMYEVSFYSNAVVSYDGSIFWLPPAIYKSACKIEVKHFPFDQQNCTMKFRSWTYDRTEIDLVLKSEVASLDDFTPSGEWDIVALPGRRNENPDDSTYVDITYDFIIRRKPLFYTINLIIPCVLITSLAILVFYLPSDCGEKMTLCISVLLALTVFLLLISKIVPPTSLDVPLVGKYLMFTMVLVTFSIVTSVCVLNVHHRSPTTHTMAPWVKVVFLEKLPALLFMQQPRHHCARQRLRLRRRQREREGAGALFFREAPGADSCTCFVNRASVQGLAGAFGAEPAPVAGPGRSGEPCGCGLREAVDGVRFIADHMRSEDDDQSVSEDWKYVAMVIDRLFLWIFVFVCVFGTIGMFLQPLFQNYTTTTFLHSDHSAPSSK
Sequence of Neuronal acetylcholine receptor; alpha4/beta2 (P43681 whole entry): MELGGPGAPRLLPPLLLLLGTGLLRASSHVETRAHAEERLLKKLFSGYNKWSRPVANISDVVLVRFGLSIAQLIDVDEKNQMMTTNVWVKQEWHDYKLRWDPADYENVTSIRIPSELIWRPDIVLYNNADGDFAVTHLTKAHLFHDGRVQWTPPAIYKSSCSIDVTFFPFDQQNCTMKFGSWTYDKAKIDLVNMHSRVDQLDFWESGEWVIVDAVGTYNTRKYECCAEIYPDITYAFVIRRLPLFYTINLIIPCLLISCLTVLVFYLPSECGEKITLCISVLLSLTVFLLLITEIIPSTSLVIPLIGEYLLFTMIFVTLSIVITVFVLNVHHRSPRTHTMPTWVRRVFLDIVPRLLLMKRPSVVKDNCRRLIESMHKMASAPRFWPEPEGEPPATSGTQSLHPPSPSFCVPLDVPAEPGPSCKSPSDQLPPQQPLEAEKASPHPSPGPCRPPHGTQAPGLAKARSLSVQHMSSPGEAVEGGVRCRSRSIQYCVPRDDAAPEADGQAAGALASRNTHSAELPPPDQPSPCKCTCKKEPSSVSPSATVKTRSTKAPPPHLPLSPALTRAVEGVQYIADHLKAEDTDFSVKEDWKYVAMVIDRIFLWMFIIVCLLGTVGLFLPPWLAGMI
Sequence of Cytochrome P450 2D6 (P10635 whole entry): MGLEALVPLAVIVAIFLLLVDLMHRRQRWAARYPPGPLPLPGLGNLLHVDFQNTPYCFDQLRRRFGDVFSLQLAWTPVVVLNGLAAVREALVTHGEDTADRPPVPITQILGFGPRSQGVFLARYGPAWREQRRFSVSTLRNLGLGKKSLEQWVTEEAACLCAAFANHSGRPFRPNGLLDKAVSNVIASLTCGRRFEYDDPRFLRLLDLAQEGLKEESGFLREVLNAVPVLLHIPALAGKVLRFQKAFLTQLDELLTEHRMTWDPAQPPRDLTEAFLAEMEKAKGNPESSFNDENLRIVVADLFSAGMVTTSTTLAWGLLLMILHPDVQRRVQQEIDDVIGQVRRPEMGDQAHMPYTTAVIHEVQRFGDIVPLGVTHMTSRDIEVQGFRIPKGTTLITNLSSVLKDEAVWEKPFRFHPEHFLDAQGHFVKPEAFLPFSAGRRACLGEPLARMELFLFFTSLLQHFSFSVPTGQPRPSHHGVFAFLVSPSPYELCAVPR
Sequence of Neuronal acetylcholine receptor; alpha3/beta4 (P30926 whole entry): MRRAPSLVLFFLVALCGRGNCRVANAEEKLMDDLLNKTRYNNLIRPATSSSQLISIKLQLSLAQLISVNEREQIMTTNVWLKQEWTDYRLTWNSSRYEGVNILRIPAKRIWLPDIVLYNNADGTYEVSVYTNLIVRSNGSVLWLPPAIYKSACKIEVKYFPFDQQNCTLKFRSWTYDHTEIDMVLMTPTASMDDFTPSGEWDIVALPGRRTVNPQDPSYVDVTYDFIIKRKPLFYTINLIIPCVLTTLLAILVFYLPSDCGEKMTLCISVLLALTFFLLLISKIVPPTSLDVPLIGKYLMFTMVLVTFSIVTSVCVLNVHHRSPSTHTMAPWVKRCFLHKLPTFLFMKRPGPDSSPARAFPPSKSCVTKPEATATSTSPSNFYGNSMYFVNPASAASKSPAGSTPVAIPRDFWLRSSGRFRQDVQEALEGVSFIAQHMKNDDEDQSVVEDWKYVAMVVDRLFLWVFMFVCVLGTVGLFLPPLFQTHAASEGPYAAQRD
Sequence of Neuronal acetylcholine receptor; alpha3/beta4 (P32297 whole entry): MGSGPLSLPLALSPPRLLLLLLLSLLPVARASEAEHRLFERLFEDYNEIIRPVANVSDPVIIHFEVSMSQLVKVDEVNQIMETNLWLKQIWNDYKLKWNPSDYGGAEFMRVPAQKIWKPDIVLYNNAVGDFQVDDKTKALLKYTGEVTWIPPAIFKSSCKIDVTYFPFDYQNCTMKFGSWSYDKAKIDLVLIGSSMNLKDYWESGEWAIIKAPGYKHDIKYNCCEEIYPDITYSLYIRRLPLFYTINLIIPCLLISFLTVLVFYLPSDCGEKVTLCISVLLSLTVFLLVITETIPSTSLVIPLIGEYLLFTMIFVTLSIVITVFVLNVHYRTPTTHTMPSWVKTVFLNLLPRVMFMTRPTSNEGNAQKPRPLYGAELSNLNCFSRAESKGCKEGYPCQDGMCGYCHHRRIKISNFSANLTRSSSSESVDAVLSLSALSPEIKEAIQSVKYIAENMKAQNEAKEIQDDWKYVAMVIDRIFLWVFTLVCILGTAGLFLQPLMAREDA

Row | SMILES | Time (Rattus norvegicus [1]) | Ki [2] | Ki [3] | metabolised at 0.5 h [4] | metabolised at 0.5 h [5] | bioavailability [6] | Cmax [7] | AUC at 24 h [8] | half-life [9] | Kp at 24 h [10] | IC50 (Cytochrome P450 2D6) | IC50 (Cytochrome P450 3A4) | Activity (Rattus norvegicus [11]) | Activity (Rattus norvegicus [12]) | Activity (Rattus norvegicus [13])
1 | CN(C)CCCN1c2ccccc2CCc2ccccc21 [IMIPRAMINE] | 176.5 s | – | – | – | – | – | – | – | – | – | – | – | – | – | –
2 | Cl.Clc1ncccc1OC[C@@H]1C[C@H]2C[C@H]2N1 | – | 0.0175 µM | > 10 µM | 29.5% | 14.9% | 54% | 921 ng/mL | 2160 ng·h/mL | 2.15 h | 3.6 | > 42 µM | > 45 µM | 10% | 24.7% | 15.8%
